In patent US10449198B2, “Method for treating pain” (The University of Liverpool, priority 2016, dated 2019):

Columns and labels:
neuropathic rats [1] = assay: Neuropathic pain model (partial sciatic nerve ligation): tactile allodynia / mechanical paw withdrawal thresholds; format: in vivo, rat
Description: Fasted, male, Wistar rats. n=6/group. Vehicle: 10% DMSO/10% Solutol HS15/80% saline. 10 ml/kg p.o. One-way ANOVA, comparison with time-matched vehicle group using Tukey's HSD test, *p<0.05, **p<0.01, ***p<0.001
Protocol for study of compounds in a model of neuropathic pain: reversal of tactile allodynia.
(§1) • 1) In rats a peripheral neuropathy was induced by partial ligation of the sciatic nerve in one hind limb. • 2) Two weeks (12-15 days) after induction of peripheral neuropathy stable mechanical (tactile) allodynia was induced in the hind paw of the affected limb. • 3) Five treatment groups of male SD rats (n=8) were used: vehicle control (drug formulation), 3 drug doses, and a positive control, lamotrigine (30 mg/kg). Animals were randomized between groups and the experiment was carried out using blinded conditions. The study was split with n=4/group in each experiment. • 4) Baseline behavioural measurements were obtained prior to surgery and at intervals post-surgery. Predose behavioural measurements were obtained by measuring paw withdrawal thresholds 12-15 days following nerve ligation. • 5) Compound efficacy was determined by measuring paw withdrawal thresholds at specified intervals following vehicle/compound treatment. Animals
All animal procedures were carried out in accordance with the UK Animals (Scientific Procedures) Act 1986 and associated guidelines. Animals were maintained in a controlled lighting environment and given food and water ad libitum. Male Sprague Dawley rats (120-140 g at time of surgery) were used.
Tests compounds as well as lamotrigine (30 mg/kg, volume: 10 ml/kg)) were prepared in the designated formulation (10% DMSO, Solutol HS 15/80% and 0.9% saline for p.o. administration) and administered via the chosen route.
Allodynia was examined in the model of neuropathic pain induced by partial ligation of the sciatic nerve as described by Seltzer et al (1990). […]
Tactile allodynia was assessed by measuring withdrawal thresholds to calibrated von Frey hairs. […] The lowest amount of force required to elicit a response was recorded as the paw withdrawal threshold (in grams).
Allodynia was measured on both the ipsilateral (ligated) and contralateral (non-ligated) paw prior to (pre-dose) and at a set time point following compound or vehicle administration (post-dose). […]
(§2) Compound/vehicle were administered at specified doses. Following treatment, further readings were taken; 1, 3, 6 and 24 hour after p.o. administration.
(§3) Raw data were analysed using parametric statistical tests, including one-way analysis of variance (ANOVA) followed by Tukey's post hoc test repeated measures of ANOVA. […]

neuropathic rats [2] = assay: Neuropathic pain model (partial sciatic nerve ligation): cold hyperalgesia, 10° C. cold plate paw withdrawal latency; format: in vivo, rat
Description: Fasted, male, Wistar rats. n=6/group. Vehicle: 10% DMSO/10% Solutol HS15/80% saline. 10 ml/kg p.o. One-way ANOVA, comparison with time-matched vehicle group using Tukey's HSD test, *p<0.05, **p<0.01, ***p<0.001.
as §1, with “treatment. Animals […]” for “treatment. Animals”
as §2
Cold sensitivity was assessed using a commercially available cold-plate (Ugo Basile, Milan). The cold-plate was set according to pre-determined calibration data using a surface temperature probe to correlate set temperature to actual surface temperature over a wide temperature range (−5° C. to 26° C.). […] Paw withdrawal latencies were determined with the cold-plate set at 10° C. […] The end point was taken as the withdrawal of the paw and recorded as the withdrawal latency for the ipsilateral and the contralateral paw. […]
as §3

α1 glycine = biological target: T1, α1 glycine (Homo sapiens, UniProt P23415); assay: Glycine receptor activity, two-electrode voltage-clamp in Xenopus laevis oocytes; format: cell-based; conditions: TEVC, holding potential −70 mV
T1 construct: expressed in transfected cells; host or cells: Xenopus laevis oocytes (cRNA injection)
T1 sequence (P23415 29-457): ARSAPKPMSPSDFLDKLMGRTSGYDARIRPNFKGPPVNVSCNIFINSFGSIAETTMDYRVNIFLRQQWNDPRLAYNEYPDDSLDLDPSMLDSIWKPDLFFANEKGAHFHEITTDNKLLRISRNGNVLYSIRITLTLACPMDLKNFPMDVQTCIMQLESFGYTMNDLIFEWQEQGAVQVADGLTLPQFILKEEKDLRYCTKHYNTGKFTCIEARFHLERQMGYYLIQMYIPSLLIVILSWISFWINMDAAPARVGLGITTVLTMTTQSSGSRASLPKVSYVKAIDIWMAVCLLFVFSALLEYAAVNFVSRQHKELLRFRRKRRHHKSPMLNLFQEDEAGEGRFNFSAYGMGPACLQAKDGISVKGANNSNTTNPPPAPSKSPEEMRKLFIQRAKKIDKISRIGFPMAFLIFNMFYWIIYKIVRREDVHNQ
Description: Oocytes were surgically removed from adult female Xenopus laevis clawfrogs anaesthetized by immersion in 0.3% tricaine in water (w/v). All protocols were approved by the local animal care and use committee (II25.3-19c20/15; RP Darmstadt, Germany). Stage V and VI Oocytes were dissected and stored in sterile-filtered ND96 medium (composition in mM: 96 NaCl, 2 KCl, 1 CaCl, 1 MgCl, 5 HEPES, pH 7.4) containing gentamycin (50 μg/mL). The oocytes were isolated and enzymatically and maintained as described previously (Grudzinska et al., 2005). Oocytes were injected with 5 ng of cRNA using a Drummond microinjector (Drummond Scientific, Broomall, USA) and incubated in ND96 for 24 h at 18° C. before electrophysiological recording. Two-electrode voltage-clamp (TEVC) with microelectrodes containing 3 M KCl was performed in bath solution at a holding potential of −70 mV as described previously (Laube et al., 2000). […]
Currents were measured with Clampfit 9.2 software (Molecular Devices), Results were analyzed using the KaleidaGraph program (Synergy Software, Reading, Pa.) and GraphPad Prism version 5.0 (GraphPad Software Inc., San Diego, Calif.). […] For propofol and 4-chloropropofol modulation, responses to EC20 glycine after application were analyzed as described previously (Lynagh and Laube, 2014); mean±standard error of the mean (SEM) are reported. […]

[3] = contralateral (non-ligated) paw

## CC(C)(C)c1cc(C(=O)N2CCOCC2)cc(C(C)(C)C)c1O [Compound 82, (3,5-Di-tert-butyl-4-hydroxyphenyl)(morpholino) methanone]
Neuropathic rats [1]; 30 mg/kg p.o., at 1 h, ipsilateral paw, neuropathic rats
  Peak reversal of tactile allodynia: 72%
Neuropathic rats [1]; all three doses, p.o.
  Efficacy across doses (cold and mechanical parameters): good and dose-related efficacy
Neuropathic rats [1]; [3]
  Contralateral paw withdrawal thresholds to mechanical pressure: significant increase
Neuropathic rats [1]; p.o., neuropathic rats
  Reversal of mechanical (paw pressure) parameter: marked and long-lasting reversal
Neuropathic rats [2]; 30 mg/kg p.o., at 1 h, 10° C. cold plate, neuropathic rats
  Peak reversal of cold hyperalgesia: 74%
Neuropathic rats [2]; [3]
  Contralateral paw withdrawal latencies to cold: increased
Neuropathic rats [2]; p.o., neuropathic rats
  Reversal of cold (10° C. cold plate) parameter: marked and long-lasting reversal
α1 glycine
  EC50: 0.46 nM
other
  melting point: 174 to 176 °C
